The values that follow come from US20090081197A1 (Palatin Technologies, Inc., priority 2007, published 2009).

Structures are written as SMILES. Non-standard residues stand in square brackets, D forms with d. Residues, ends and D or L forms follow the SMILES beside them. *: point of attachment. dPhe(4-Cl) = N[C@H](Cc1ccc(Cl)cc1)C(=O)O; Ahp = NCCCCCCC(=O)O; Bn = c1ccc(C*)cc1

Assay [1] has as its target MC5-R (Homo sapiens, UniProt P33032). Briefly: Competitive inhibition assay using [I^125]-NDP-α-MSH, hMC5-R membranes. The conditions noted are these: 1 μM test compound; read-out: Inhibition at 1 μM (NDP-α-MSH) In Normal System, MC5-R. Also noted: expressed in transfected cells. The class given is binding. A digest of the protocol: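 Tracer was 0.4 nM for MC3-R and MC5-R, 0.2 nM for MC4-R and 0.1 nM for MC1-R. Bound radioactivity was gamma-counted after filtration; values are triplicate means, with results below 0% reported as 0%.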

Assay [2] is described as follows: ICV food intake and body weight change. The format is in vivo. Particulars: rat, 1 nmol, 24 hours. A digest of the protocol:
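Rats fitted with intracerebroventricular cannulas and fed ad libitum got a single ICV dose of vehicle or compound (1-3 nmol). Food intake and body-weight change over the 24 h after dosing were compared with a 1-week vehicle baseline. Values at 48 h and 72 h were also recorded to follow return to baseline.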

Assay [3] addresses MC4-R (Homo sapiens, UniProt P32245). Kind of assay: Assay for neutral antagonist, Schild analysis (pA2) against NDP-α-MSH. The format is cell-based. Also noted: expressed in transfected cells; host or cells: HEK-293. Particulars: Schild analysis vs NDP-α-MSH; read-out: pA2 value as antagonist at MC4-R in a normal system (converted). On the procedure: Assay for Neutral Antagonist. […] These studies were carried out in HEK-293 cells expressing the MC4-R receptor. Cells were incubated with the compounds in the presence of the agonist NDP-α-MSH and the extent of antagonism was measured by the decrease in the level of intracellular cAMP. Screening the compounds for antagonists was done at a single concentration of NDP-α-MSH (1.0 nM) over a compound concentration range of 0.5-5000 nM.
Experimental details were similar to the analysis for agonistic activity described above. Briefly, cells were pre-incubated for 30 minutes with the test compounds at concentrations between 0.5 nM and 5000 nM. The cells were then stimulated with NDP-α-MSH at a concentration of 1 nM for 1 hour. For Schild analysis, the interactions were studied using at least 3 concentrations of the compounds, separated by a log unit, over a full range of the agonist (0.005-5000 nM). cAMP levels was measured in the cell lysates after appropriate dilution. Nonlinear regression analysis with Prism Graph-Pad software was used for Schild analysis and to obtain EC50 values. pA2 values were derived from the Schild plot of the data.

Assay [4] in a line: IP (and IN) food intake, mice. The conditions noted are these: mouse, IP, 10 mg/kg, 4 hours. The format is in vivo. An outline of the steps:
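Male Sprague-Dawley rats dosed IV (0.5-3, up to 10 mg/kg) or IP (0.5-10, up to 50 mg/kg); male C57BL/6 mice dosed IP. Change in food intake and body weight over 24 h post-dose versus 1-week vehicle baseline, with 48 and 72 h reversal checks.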

Sequence of MC5-R (P33032 whole entry): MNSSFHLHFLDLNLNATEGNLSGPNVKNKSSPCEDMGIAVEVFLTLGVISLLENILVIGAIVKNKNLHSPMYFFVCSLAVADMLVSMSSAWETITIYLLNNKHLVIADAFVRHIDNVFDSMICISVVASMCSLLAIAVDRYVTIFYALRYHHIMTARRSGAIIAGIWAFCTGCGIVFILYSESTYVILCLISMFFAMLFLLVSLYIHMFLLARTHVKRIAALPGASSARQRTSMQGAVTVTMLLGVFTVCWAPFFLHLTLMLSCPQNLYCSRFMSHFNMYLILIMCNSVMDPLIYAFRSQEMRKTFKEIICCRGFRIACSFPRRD
Sequence of MC4-R (P32245 whole entry): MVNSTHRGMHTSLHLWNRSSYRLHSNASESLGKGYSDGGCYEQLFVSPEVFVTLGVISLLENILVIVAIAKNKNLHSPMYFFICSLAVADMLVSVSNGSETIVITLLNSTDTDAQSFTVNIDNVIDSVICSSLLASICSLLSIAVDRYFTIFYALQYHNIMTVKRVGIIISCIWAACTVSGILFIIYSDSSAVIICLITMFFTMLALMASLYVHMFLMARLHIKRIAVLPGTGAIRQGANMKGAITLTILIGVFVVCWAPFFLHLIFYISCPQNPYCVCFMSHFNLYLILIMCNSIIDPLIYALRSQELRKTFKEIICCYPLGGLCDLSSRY

With `N=C(N)NCCC[C@H](NC(=O)[C@@H](Cc1ccc(Cl)cc1)NC(=O)[C@H](COCc1ccccc1)NC(=O)CCCCCCN)C(=O)N[C@@H](Cc1c[nH]c2ccccc12)C(=O)N[C@@H](CC(=O)O)C(N)=O` [Example 13, NH2—(CH2)6—C(═O)-Ser(Bzl)-D-Phe(4-Cl)-Arg-Trp-Asp-NH2] (H-[Ahp]S(Bn)[dPhe(4-Cl)]RWD-NH2), the inhibition at 1 µM in assay [1] is 48%. Also, in assay [2], the “decrease in body weight” value is 2.1% and the “decrease in food intake” value was determined as 25.7%. Besides, the Kb in assay [3] is 50.1 nM.
On to `N=C(N)NCCC[C@H]1CN(CCc2ccc3ccccc3c2)CCN1C(=O)[C@H](N)Cc1ccc(Cl)cc1Cl` [Example 17, N-{3-[(S)-1-[(R)-2-Amino-3-(2,4-dichloro-phenyl)-propionyl]-4-(2-naphthalen-2-yl-ethyl)-piperazin-2-yl]-propyl}-guanidine], for which the inhibition at 1 µM in assay [1] was 75%. Moreover, in assay [2], the “decrease in food intake” value is 32%. The “maximal decrease in food intake” value in assay [4] was determined as 86%.
